The values that follow are results of earlier work, collected in US20050186168A1, “Skin remodeling and regenerative compositions containing elastin peptide ligands having the amino acid sequence (XGXXPG)n” (priority 2004, published 2005).

One series has as its system Human lymphocytes. As to conditions: 1 microgram/ml.
The next series has as its system pro-MMP-1. As to conditions: for concentration sufficient to stimulate pro-MMP-1 production: fibroblast culture, comparable stimulation levels.
Series [1] relates to elastin-laminin receptor (ELR). To be noted: 5 micrograms/ml (140 micromolar), 10th and 15th passage.
For the next series, the system named is MMP-1 mRNA. As to conditions: after 24 h of culture; standardized with 36B4 cDNA probe.
Setting [2] is: 1 mM lactose in fibroblast culture medium.

As to `OC[C@H]1O[C@@H](O[C@H]2[C@H](O)[C@@H](O)C(O)O[C@@H]2CO)[C@H](O)[C@@H](O)[C@H]1O` (stereo partly shown) [lactose], in the series with Human lymphocytes, the “elastin peptide-induced cell death” value is “inhibited”. Further, in the series on pro-MMP-1 (setting [2]), the “inhibition of VGVAPG-stimulating effect on pro-MMP-1 production” value is on record as 80% and the “inhibition of kE-stimulated pro-MMP-1 production” value was 35%. Besides, the “effect on pro-MMP-1 accumulation stimulated by interleukin-1” value in the series on pro-MMP-1 (lactose alone) is reported as “no effect”. Moreover, in the series on pro-MMP-3 (cells treated with 1 mM lactose), the “accumulation of pro-MMP-3 in the medium” value was “decreased”.

Turning to `OC[C@H]1O[C@H](OCC2O[C@@H](O)[C@H](O)[C@@H](O)[C@@H]2O)[C@H](O)[C@@H](O)[C@H]1O` (stereo partly shown) [melibiose], the “elastin peptide-induced cell death” value in the series on Human lymphocytes is “inhibited”. Besides, in the series on human skin fibroblasts, the “incorporation of the tracer in GAGs” value was “increased” and the “post-synthetic degradation of hyaluronan” value is “inhibited”. Besides, in series [1], the fibronectin biosynthesis entry is on record as “decreased” and the total protein biosynthesis entry was “decreased”.

As for GVAPGV, the “efficiency of pro-MMP-1 induction relative to VGVAPG (more efficient)” value with pro-MMP-1 (compared with VGVAPG) is on record as 20%.

Consider LGTIPG, for which the “stimulation of MMP-1 expression” value in the series with pro-MMP-1 (laminin-derived peptide) is recorded as “Stimulation of MMP-1 expression could also be achieved”.

On to VGVAPG, for which, in the series on pro-MMP-1, the pro-MMP-1 induction level is recorded as 1 ng/h/10^5 fibroblasts and the “concentration sufficient to stimulate pro-MMP-1 production” value (“concentration sufficient” for short) was 200 µg/mL. For the same molecule, the “MMP-1 mRNA levels increased” value with MMP-1 mRNA is reported as 8 fold. Further, the “expression of proteins reacting with anti-MMP-3 antibody (pro-MMP-3)” value with pro-MMP-3 (Western blotting, stimulated fibroblasts) was “significantly up-regulated”.

Take “interleukin-1 receptor antagonist: interleukin-1 receptor antagonist”: in the series on pro-MMP-1, the “blocking of elastin peptide-dependent induction of pro-MMP-1” value is “could not be blocked”.

B1: Elastin: extracellular matrix protein elastin (protein, UniProt P15502 27-786, looked up)
Elastin: GGVPGAIPGGVPGGVFYPGAGLGALGGGALGPGGKPLKPVPGGLAGAGLGAGLGAFPAVTFPGALVPGGVADAAAAYKAAKAGAGLGGVPGVGGLGVSAGAVVPQPGAGVKPGKVPGVGLPGVYPGGVLPGARFPGVGVLPGVPTGAGVKPKAPGVGGAFAGIPGVGPFGGPQPGVPLGYPIKAPKLPGGYGLPYTTGKLPYGYGPGGVAGAAGKAGYPTGTGVGPQAAAAAAAKAAAKFGAGAAGVLPGVGGAGVPGVPGAIPGIGGIAGVGTPAAAAAAAAAAKAAKYGAAAGLVPGGPGFGPGVVGVPGAGVPGVGVPGAGIPVVPGAGIPGAAVPGVVSPEAAAKAAAKAAKYGARPGVGVGGIPTYGVGAGGFPGFGVGVGGIPGVAGVPGVGGVPGVGGVPGVGISPEAQAAAAAKAAKYGAAGAGVLGGLVPGAPGAVPGVPGTGGVPGVGTPAAAAAKAAAKAAQFGLVPGVGVAPGVGVAPGVGVAPGVGLAPGVGVAPGVGVAPGVGVAPGIGPGGVAAAAKSAAKVAAKAQLRAAAGLGAGIPGLGVGVGVPGLGVGAGVPGLGVGAGVPGFGAGADEGVRRSLSPELREGDPSSSQHLPSTPSSPRVPGALAAAKAAKYGAAVPGVLGGLGALGGVGIPGGVVGAGPAAAAAAAKAAAKAAQFGLVGAAGLGGLGVGGLGVPGVGGLGGIPPAAAAKAAKYGAAGLGGVLGGAGQFPLGGVAARPGFGLSPIFPGGACLGKACGRKRK
Take B1: in the series on pro-MMP-1, the “concentration sufficient” value was 50 µg/mL.

B2: tropoelastin: the soluble precursor of elastin (protein, UniProt P15502 27-786, looked up)
Elastin: B1 Elastin
As to B2, in the series on pro-MMP-1, the “concentration sufficient” value is 50 µg/mL.
